Patent US7932262B2 (Novartis AG, priority 2006, dated 2011)

Legend:
PC-3 cells = assay: Cell Proliferation Assay (Cell Titer Glo), PC-3 cell line; assay type: cell-based; settings: Homo sapiens, PC-3, Cell Proliferation Assay, PC3; read-out: CPEC50 PC3
Method in brief: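 PC-3 cells, 1000 cells/well, left to adhere 3-5 h, then exposed for 3 days at 37° C to compounds as 1:3 serial dilutions from 500× DMSO stocks diluted in growth medium. Medium then replaced with fresh medium and viability read by Cell Titer Glo luminescence.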

PDK1 kinase = target: T1, PDK1 kinase (Homo sapiens, UniProt O15530); assay: PDK1 Kinase Alpha Screen Assay; assay type: biochemical; settings: PDK1 Kinase Alpha Screen Assay; read-out: PDK1 IC50
T1 sequence (O15530 1-556): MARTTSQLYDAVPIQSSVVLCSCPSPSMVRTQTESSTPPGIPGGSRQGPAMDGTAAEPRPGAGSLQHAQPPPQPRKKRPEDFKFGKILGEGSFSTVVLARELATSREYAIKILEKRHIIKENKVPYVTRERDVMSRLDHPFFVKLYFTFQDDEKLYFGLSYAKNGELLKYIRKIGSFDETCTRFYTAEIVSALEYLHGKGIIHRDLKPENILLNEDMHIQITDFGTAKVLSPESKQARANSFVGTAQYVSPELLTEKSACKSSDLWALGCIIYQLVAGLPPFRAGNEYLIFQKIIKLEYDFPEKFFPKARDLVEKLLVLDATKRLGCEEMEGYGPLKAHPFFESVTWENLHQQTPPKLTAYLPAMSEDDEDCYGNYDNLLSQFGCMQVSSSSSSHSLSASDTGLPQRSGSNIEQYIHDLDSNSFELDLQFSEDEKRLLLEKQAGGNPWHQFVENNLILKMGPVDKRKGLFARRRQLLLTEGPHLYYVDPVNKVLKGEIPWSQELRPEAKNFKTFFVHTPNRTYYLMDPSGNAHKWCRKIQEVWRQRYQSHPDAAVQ
Method in brief: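 Biotinylated PDK1-4 peptide (50 nM) phosphorylated by PDK1 with 10 uM ATP in pH 7.5 Tris/MgCl2/DTT buffer, 2.5% DMSO, for 3-18 hours. EDTA stop, then AlphaScreen detection with phospho-(Ser/Thr) PKA substrate antibody and protein A/streptavidin beads after overnight room-temperature development.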

| SMILES | EC50 (PC-3 cells) [µM] | IC50 (PDK1 kinase) [µM] |
| --- | --- | --- |
| Fc1cccc(Nc2ncc3c(Br)ccc(OC4CCNCC4)c3n2)c1 [Compound 433, 5-bromo-N-(3-fluorophenyl)-8-(piperidin-4-yloxy)quinazolin-2-amine] | < 5 | < 5 |
| CC(C)NC(=O)c1ccc(Nc2ncc3cccc(OC4CCNCC4)c3n2)cc1F [Compound 439, 2-fluoro-N-isopropyl-4-(8-(piperidin-4-yloxy)quinazolin-2-ylamino)benzamide] | < 5 | < 5 |
| O=C(NC1CCOCC1)c1ccc(Nc2ncc3cccc(OC4CCNCC4)c3n2)cc1F [Compound 440, 2-fluoro-4-(8-(piperidin-4-yloxy)quinazolin-2-ylamino)-N-(tetrahydro-2H-pyran-4-yl)benzamide] | < 5 | < 5 |
| O=C(O)c1ccc(Nc2ncc3cccc(OC4CCNCC4)c3n2)cc1F [Compound 441, 2-fluoro-4-(8-(piperidin-4-yloxy)quinazolin-2-ylamino)benzoic acid] | 5 to 10 | < 5 |
| CN(C)C(=O)c1ccc(Nc2ncc3cccc(OC4CCNCC4)c3n2)cc1F [Compound 446, 2-fluoro-N,N-dimethyl-4-(8-(piperidin-4-yloxy)quinazolin-2-ylamino)benzamide] | < 5 | < 5 |
| NC(=O)c1cc(Nc2ncc3cccc(OC4CCNCC4)c3n2)ccc1N1CCOCC1 [Compound 448, 2-morpholino-5-(8-(piperidin-4-yloxy)quinazolin-2-ylamino)benzamide] | 5 to 10 | < 5 |
| O=C(O)c1cc(Nc2ncc3cccc(OC4CCNCC4)c3n2)ccc1N1CCOCC1 [Compound 449, 2-morpholino-5-(8-(piperidin-4-yloxy)quinazolin-2-ylamino)benzoic acid] | 5 to 10 | < 5 |
| O=C(O)c1cc(Nc2ncc3cccc(OC4CCNCC4)c3n2)cc(C(F)(F)F)c1 [Compound 450] | 5 to 10 | < 5 |
| O=C(c1cc(Nc2ncc3cccc(OC4CCNCC4)c3n2)cc(C(F)(F)F)c1)N1CCOCC1 [Compound 454, morpholino(3-(8-(piperidin-4-yloxy)quinazolin-2-ylamino)-5-(trifluoromethyl)phenyl)methanone] | 5 to 10 | < 5 |
| O=C(NC1CC1)c1cc(Nc2ncc3cccc(OC4CCNCC4)c3n2)ccc1N1CCOCC1 [Compound 456, N-cyclopropyl-2-morpholino-5-(8-(piperidin-4-yloxy)quinazolin-2-ylamino)benzamide] | < 5 | < 5 |
| CN1CCN(c2ccc(-c3cccc4cnc(Nc5ccc(N6CCOCC6)c(F)c5)nc34)cc2)CC1 [Compound 459, N-(3-fluoro-4-morpholinophenyl)-8-(4-(4-methylpiperazin-1-yl)phenyl)quinazolin-2-amine] | < 5 | < 5 |
| Fc1cc(Nc2ncc3cccc(C4=CCNCC4)c3n2)ccc1N1CCOCC1 [Compound 460, N-(3-fluoro-4-morpholinophenyl)-8-(1,2,3,6-tetrahydropyridin-4-yl)quinazolin-2-amine] | < 5 | < 5 |
| CC(C)NC(=O)c1cc(F)cc(Nc2ncc3cccc(OC4CCNCC4)c3n2)c1 [Compound 461, 3-fluoro-N-isopropyl-5-(8-(piperidin-4-yloxy)quinazolin-2-ylamino)benzamide] | < 5 | < 5 |
| c1cc(CN2CCOCC2)cc(Nc2ncc3cccc(-c4ccc(NCCN5CCCC5)nc4)c3n2)c1 [Compound 465, N-(3-(morpholinomethyl)phenyl)-8-(6-(2-(pyrrolidin-1-yl)ethylamino)pyridin-3-yl)quinazolin-2-amine] | < 5 | < 5 |

Further lines, results first:

| EC50 (PC-3 cells) [µM] | IC50 (PDK1 kinase) [µM] | SMILES |
| --- | --- | --- |
| < 5 | < 5 | Fc1ccc(Nc2ncc3c(Br)ccc(OC4CCNCC4)c3n2)cc1 [Compound 434, 5-bromo-N-(4-fluorophenyl)-8-(piperidin-4-yloxy)quinazolin-2-amine] |
| 5 to 10 | < 5 | Brc1ccc(OC2CCNCC2)c2nc(Nc3ccc(N4CCOCC4)cc3)ncc12 [Compound 435, 5-bromo-N-(4-morpholinophenyl)-8-(piperidin-4-yloxy)quinazolin-2-amine] |
| < 5 | < 5 | CN1CCN(c2ccc(-c3cccc4cnc(Nc5ccc(C(F)(F)F)nc5)nc34)cn2)CC1 [Compound 436, 8-(6-(4-methylpiperazin-1-yl)pyridin-3-yl)-N-(6-(trifluoromethyl)pyridine-3-yl)quinazolin-2-amine] |
| < 5 | 5 to 10 | O=S(=O)(c1cccc(Nc2ncc3c(Br)ccc(OC4CCNCC4)c3n2)c1)N1CCOCC1 [Compound 437, 5-bromo-N-(3-(morpholinosulfonyl)phenyl)-8-(piperidin-4-yloxy)quinazolin-2-amine] |
| < 5 | < 5 | O=C(c1ccc(Nc2ncc3c(Br)ccc(OC4CCNCC4)c3n2)cc1)N1CCOCC1 [Compound 438, (4-(5-bromo-8-(piperidin-4-yloxy)quinazolin-2-ylamino)phenyl)(morpholino)methanone] |
| < 5 | < 5 | CC(=O)Nc1cccc(Nc2ncc3cccc(-c4ccc(N5CCN(C)CC5)nc4)c3n2)c1 [Compound 442, N-(3-(8-(6-(4-methylpiperazin-1-yl)pyridin-3-yl)quinazolin-2-ylamino)phenyl)acetamide] |
| < 5 | < 5 | CN1CCN(c2ccc(-c3cccc4cnc(Nc5cccc(-c6cnco6)c5)nc34)cn2)CC1 [Compound 443, 8-(6-(4-methylpiperazin-1-yl)pyridin-3-yl)-N-(3-(oxazol-5-yl)phenyl)quinazolin-2-amine] |
| < 5 | < 5 | O=C(NC1CC1)c1ccc(Nc2ncc3cccc(OC4CCNCC4)c3n2)cc1F [Compound 444, N-cyclopropyl-2-fluoro-4-(8-(piperidin-4-yloxy)quinazolin-2-ylamino)benzamide] |
| < 5 | < 5 | COCCNC(=O)c1ccc(Nc2ncc3cccc(OC4CCNCC4)c3n2)cc1F [Compound 445, 2-fluoro-N-(2-methoxyethyl)-4-(8-(piperidin-4-yloxy)quinazolin-2-ylamino)benzamide] |
| < 5 | < 5 | O=C(c1ccc(Nc2ncc3cccc(OC4CCNCC4)c3n2)cc1F)N1CCOCC1 [Compound 447, (2-fluoro-4-(8-(piperidin-4-yloxy)quinazolin-2-ylamino)phenyl)(morpholino)methanone] |
| < 5 | < 5 | CCOC(=O)c1cc(F)cc(Nc2ncc3cccc(OC4CCNCC4)c3n2)c1 [Compound 451, ethyl 3-fluoro-5-(8-(piperidin-4-yloxy)quinazolin-2-ylamino)benzoate] |
| < 5 | < 5 | FC(F)(F)c1cc(Br)cc(Nc2ncc3cccc(OC4CCNCC4)c3n2)c1 [Compound 452, N-(3-bromo-5-(trifluoromethyl)phenyl)-8-(piperidin-4-yloxy)quinazolin-2-amine] |
| < 5 | < 5 | CC(C)NC(=O)c1cc(Nc2ncc3cccc(OC4CCNCC4)c3n2)cc(C(F)(F)F)c1 [Compound 453, N-isopropyl-3-(8-(piperidin-4-yloxy)quinazolin-2-ylamino)-5-(trifluoromethyl)benzamide] |
| 5 to 10 | < 5 | CN(C)C(=O)c1cc(Nc2ncc3cccc(OC4CCNCC4)c3n2)ccc1N1CCOCC1 [Compound 455, N,N-dimethyl-2-morpholino-5-(8-(piperidin-4-yloxy)quinazolin-2-ylamino)benzamide] |
| < 5 | < 5 | Fc1cc(Nc2ncc3cccc(OC4CCNCC4)c3n2)ccc1N1CCOCC1 [Compound 457, N-(3-fluoro-4-morpholinophenyl)-8-(piperidin-4-yloxy)quinazolin-2-amine] |
| < 5 | < 5 | c1cc(OC2CCNCC2)c2nc(Nc3ccc(-c4cnco4)cc3)ncc2c1 [Compound 458, N-(4-(oxazol-5-yl)phenyl)-8-(piperidin-4-yloxy)quinazolin-2-amine] |
| < 5 | < 5 | O=C(c1cc(F)cc(Nc2ncc3cccc(OC4CCNCC4)c3n2)c1)N1CCOCC1 [Compound 462] |
| < 5 | < 5 | CN1CCN(C(=O)c2cc(F)cc(Nc3ncc4cccc(OC5CCNCC5)c4n3)c2)CC1 [Compound 463, (3-fluoro-5-(8-(piperidin-4-yloxy)quinazolin-2-ylamino)phenyl)(4-methylpiperazin-1-yl)methanone] |
| 5 to 10 | < 5 | Cc1ccc(OC2CCNCC2)c2nc(Nc3ccc(S(N)(=O)=O)cc3)ncc12 [Compound 464, 4-(5-methyl-8-(piperidin-4-yloxy)quinazolin-2-ylamino)benzenesulfonamide] |
